Test results: patent publication US20220323554A1, “POLYSACCHARIDE-PEPTIDE COMPLEX FOR LOWERING BLOOD SUGAR, BLOOD LIPID AND GLYCOSYLATED HEMOGLOBIN LEVELS, AND PREPARATION METHOD” (CHINA YUNHONG HOLDINGS CO., LTD., priority 2019, published 2022)
Counter-ions that a name gives are not always drawn.

How the values were obtained:
diabetic animal model = experiment: Evaluation tests for lowering blood sugar (urine sugar, fasting blood sugar) in streptozotocin rats; assay type: in vivo; conditions: positive control group, metformin hydrochloride solution, intragastric once per day for 15 days
Method: Evaluation tests for lowering blood sugar were described below.
100 of healthy male rats were selected, numbered and fed adaptively in normal environment for 2 weeks, and free to eat and drink.
After adaptive feeding, the rats were randomly divided into 5 groups with 20 rats in each group. Only one group was selected as the blank control group, the rest groups were subjected to disposable intraperitoneal injection with 5% streptozotocin STZ solution for 200 mg/kg. If there were coma among those rats within 2 h, glucose sugar solution was fed until awake. Two days later, the fasting blood sugar was detected. The rat with a blood sugar of more than 10 was selected as a diabetic animal model.
The rats that were successfully modeled were randomly divided into model group, positive control group, low-dose group, medium-dose group and high-dose group according to blood sugar and body weight, with 20 rats in each group. The polysaccharide-peptide composites prepared in Examples 1-3 were diluted with water into intragastric solutions, which were fed to the low-dose group for 1.0 g/kg, the medium-dose group for 2.0 g/kg and the high-dose group for 3.0 g/kg, respectively. […]
During the experiment, rats of each group were […] every day for 15 consecutive days. […] At the end of the experiment, the final blood sugar content was recorded.

diabetic rat model = experiment: Evaluation tests for lowering glycated hemoglobin (HbA1c) and blood lipid in diabetic rats (high-lipid emulsion + streptozotocin); assay type: in vivo, Sprague-Dawley (SD) rats; conditions: positive control group, metformin hydrochloride solution, intragastric once per day for 8 weeks
Method: Evaluation tests for lowering glycated hemoglobin (HbA1c) were described below.
Healthy male Sprague-Dawley (SD) rats with a body weight of 185-225 g were selected and fed adaptively for one week. After adaptive feeding, the SD rats were randomly divided into six groups each for 20 rats. One of the six groups was selected as a blank control group, and fed with ordinary feed. The rest five groups were subjected to intragastric administration with high-lipid emulsion for 10 mL/kg per day for 1 month. After the last feeding, rats were fasted for 12 h expect for water. The rats fed with high-lipid emulsion were subjected to disposable intraperitoneal injection with streptozotocin STZ solution for 25 mg/kg to establish a diabetic rat model. After streptozotocin injection for 72 h, the rats were fasted for 12 h expect for water and was taken blood samples from the tail to detect fasting blood sugar. The rat with a fasting blood glucose>10.0 mmol/L was considered as a successful model. The blank control group was intraperitoneally injected with citric acid-sodium citrate buffer solution.
The rats that were successfully modeled were randomly divided into model group, positive control group, low-dose group, medium-dose group and high-dose group according to blood sugar and body weight, with 20 rats in each group. […]

high-lipid model rats = experiment: Evaluation tests for lowering blood lipid (TC, TG) in rats given high lipid diet; assay type: in vivo; conditions: positive control group, simvastatin solution 50 mg/kg bw d, intragastric
Description: Evaluation tests for lowering blood lipid were described below. 60 of healthy male rats were selected, numbered and fed adaptively in normal environment for 2 weeks, and free to eat and drink. After the adaptive feeding, the rats were randomly divided into 6 groups with 10 rats in each group, consisting of a blank control group, a high-lipid model group, a positive treatment group, a high-dose group, a medium-dose group and a low-dose group. Except the blank control group, the other groups were given high lipid diet. The polysaccharide-peptide composites prepared in this application and simvastatin were respectively diluted. The positive control group was given simvastatin solution by intragastric administration for 50 mg/kg bw d, and the high, medium and low-dose groups were given polysaccharide-peptide solutions for 100 mg/kg bw d, 50 mg/kg bw d and 25 mg/kg bw d, respectively. Other groups were intragastric with corresponding volume of distilled water. The treatment period lasted for 4 weeks.

SMILES | Content of urine sugar (diabetic animal model; model group 1.74 ± 0.56) [mmol/L] | Content of fasting blood sugar (diabetic animal model; model group 14.86 ± 2.38) [mmol/L] | Content of blood lipid (diabetic rat model; model group 3.29 ± 0.58) [mmol/L] | Content of HbA1c (diabetic rat model; model group 50.78 ± 3.76) [ng/mL] | Content of TG (high-lipid model rats; model group 0.57 ± 0.18) [mmol/L] | Content of TC (high-lipid model rats; model group 3.41 ± 0.58) [mmol/L]
CN(C)C(=N)N=C(N)N [metformin hydrochloride] | 1.44 ± 0.23 | 8.55 ± 1.37 | 2.52 ± 0.24 | 35.14 ± 1.25 |  | 
CCC(C)(C)C(=O)O[C@H]1C[C@@H](C)C=C2C=C[C@H](C)[C@H](CC[C@@H]3C[C@@H](O)CC(=O)O3)[C@H]21 [simvastatin] |  |  |  |  | 0.32 ± 0.14 | 2.59 ± 0.24
